From ChEMBL document CHEMBL1201862, “PubChem BioAssay data set” (2004)
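Results reflect a 48-hour exposure of cells in 96-well plates to compound at five concentrations. GI50: concentration for 50% inhibition of growth.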 The source made the active and inactive calls. No stated cut-off is given here; in the data, active = GI50 up to about 1.1 µM and inactive = higher.

Assays:
Assay in all cases: inhibition of tumour cell growth, NCI panel, 48 h
786-0 = system: 786-0
SW-620 = system: SW-620
OVCAR-3 = system: OVCAR-3
ACHN = system: ACHN
U-251 = system: U-251
SK-MEL-5 = system: SK-MEL-5
HCC 2998 = system: HCC 2998
K562 = system: K562
NCI-H226 = system: NCI-H226
LOX IMVI = system: LOX IMVI
SF-268 = system: SF-268
MDA-N = system: MDA-N
SK-MEL-28 = system: SK-MEL-28
HOP-62 = system: HOP-62
KM12 = system: KM12
Malme-3M = system: Malme-3M
UO-31 = system: UO-31
UACC-62 = system: UACC-62
MOLT-4 = system: MOLT-4
OVCAR-4 = system: OVCAR-4

Measured: GI50

COc1cc(C2SCC(=O)N2c2ccc(-n3c(-c4ccccc4)nc4ccccc4c3=O)cc2)ccc1O (configuration not stated)
inactive: 786-0 > 100 µM | SW-620 > 100 µM | OVCAR-3 > 100 µM | ACHN > 100 µM | U-251 84.9 µM | SK-MEL-5 49.3 µM | HCC 2998 58.3 µM | K562 > 100 µM | NCI-H226 5.01 µM | LOX IMVI 54.6 µM | SF-268 32.4 µM | MDA-N > 100 µM | SK-MEL-28 > 100 µM | HOP-62 > 100 µM | KM12 34.4 µM | Malme-3M 54.7 µM | UO-31 11.8 µM | UACC-62 26.1 µM | MOLT-4 24.2 µM | OVCAR-4 65.6 µM

Nc1nc(N)c2c(-c3ccccc3)ccnc2n1
inactive: 786-0 67.1 µM | SW-620 39.7 µM | OVCAR-3 > 100 µM | ACHN > 100 µM | U-251 > 100 µM | SK-MEL-5 > 100 µM | HCC 2998 > 100 µM | K562 > 100 µM | NCI-H226 40.4 µM | LOX IMVI > 100 µM | SF-268 > 100 µM | MDA-N > 100 µM | SK-MEL-28 40.5 µM | HOP-62 > 100 µM | Malme-3M > 100 µM | UO-31 > 100 µM | UACC-62 > 100 µM | MOLT-4 > 10 µM | OVCAR-4 > 100 µM

CCSc1nnc(Sc2c3ccccc3nc3ccccc23)s1
inactive: 786-0 2.84 µM | SW-620 5.45 µM | OVCAR-3 13.1 µM | ACHN 5.19 µM | U-251 23.3 µM | SK-MEL-5 15.6 µM | HCC 2998 11.8 µM | K562 3.8 µM | NCI-H226 33.7 µM | LOX IMVI 6.7 µM | SF-268 19.3 µM | MDA-N 6.68 µM | SK-MEL-28 17.5 µM | HOP-62 > 58.6 µM | KM12 24.8 µM | Malme-3M 7.01 µM | UO-31 10.7 µM | UACC-62 15 µM | MOLT-4 2.63 µM | OVCAR-4 16.9 µM

N#Cc1cccc(Nc2ccccc2SSc2ccccc2Nc2cccc(C#N)c2)c1
inactive: 786-0 3.91 µM | SW-620 3.48 µM | OVCAR-3 9.12 µM | ACHN 8.73 µM | U-251 5.92 µM | SK-MEL-5 9.04 µM | HCC 2998 16.6 µM | K562 5.12 µM | NCI-H226 10.3 µM | LOX IMVI 2.73 µM | SF-268 4.93 µM | MDA-N 9.23 µM | SK-MEL-28 13.3 µM | HOP-62 11.9 µM | KM12 9.46 µM | Malme-3M 11 µM | UO-31 4.97 µM | UACC-62 7.1 µM | MOLT-4 3.13 µM | OVCAR-4 10.7 µM

CCOC(=O)c1c(C)[nH]c2c1c(CN(C)C)c(O)c1nc(C)c(C)nc12
inactive: 786-0 16.1 µM | SW-620 24.4 µM | OVCAR-3 26.5 µM | ACHN 20.5 µM | U-251 24.3 µM | SK-MEL-5 15 µM | HCC 2998 21.4 µM | K562 21.3 µM | NCI-H226 22.2 µM | LOX IMVI 19.4 µM | SF-268 27.3 µM | MDA-N 19.2 µM | SK-MEL-28 25 µM | HOP-62 20 µM | KM12 28.2 µM | Malme-3M 18.5 µM | UO-31 29.5 µM | UACC-62 15.6 µM | MOLT-4 16 µM | OVCAR-4 27.2 µM

CC(C)C(=O)C(C)(C)CCc1ccccn1
inactive: 786-0 > 100 µM | SW-620 > 100 µM | OVCAR-3 > 100 µM | ACHN > 100 µM | U-251 > 100 µM | SK-MEL-5 > 100 µM | HCC 2998 > 100 µM | K562 > 100 µM | NCI-H226 > 100 µM | LOX IMVI > 100 µM | SF-268 > 100 µM | MDA-N > 100 µM | SK-MEL-28 > 100 µM | HOP-62 > 100 µM | KM12 > 100 µM | Malme-3M > 100 µM | UO-31 > 100 µM | UACC-62 > 100 µM | OVCAR-4 > 100 µM

COc1c2c(cc3c1C(=O)c1c(O)cccc1C3=O)CC(O)CC2 (configuration not stated)
inactive: 786-0 25.6 µM | SW-620 > 100 µM | OVCAR-3 > 100 µM | ACHN 23.6 µM | U-251 50.9 µM | SK-MEL-5 > 100 µM | HCC 2998 > 100 µM | K562 > 100 µM | NCI-H226 54.5 µM | LOX IMVI > 100 µM | MDA-N > 100 µM | SK-MEL-28 > 100 µM | HOP-62 19.3 µM | KM12 > 100 µM | Malme-3M 49.8 µM | UO-31 56.9 µM | UACC-62 28.5 µM | MOLT-4 > 100 µM | OVCAR-4 > 100 µM

Cc1c(N2CCCC2)cc2c(c1NC(=O)c1ccccc1Cl)C(C)(C)CC2(C)C
inactive: 786-0 14.1 µM | SW-620 16 µM | OVCAR-3 8.3 µM | ACHN 15 µM | U-251 14.5 µM | SK-MEL-5 16.8 µM | HCC 2998 13.1 µM | K562 35 µM | NCI-H226 23.2 µM | LOX IMVI 13.4 µM | SF-268 15.4 µM | MDA-N 13.9 µM | SK-MEL-28 17.6 µM | HOP-62 14.2 µM | KM12 15.3 µM | Malme-3M 17.7 µM | UO-31 13.2 µM | UACC-62 10.8 µM | OVCAR-4 15.7 µM

c1ccc2nc(CCC3CCCCN3)ccc2c1 (configuration not stated)
inactive: 786-0 > 100 µM | SW-620 > 100 µM | ACHN > 100 µM | U-251 > 100 µM | SK-MEL-5 38.2 µM | HCC 2998 > 100 µM | K562 47.4 µM | NCI-H226 > 100 µM | LOX IMVI > 100 µM | SF-268 > 100 µM | MDA-N 87.7 µM | SK-MEL-28 > 100 µM | HOP-62 85.5 µM | KM12 > 100 µM | Malme-3M 91.4 µM | UO-31 78.3 µM | UACC-62 > 100 µM | OVCAR-4 > 100 µM

COc1cc2c(cc1OC)C(=O)N(c1ccc(OCCN3CCCC3)cc1)C2=O
inactive: 786-0 > 100 µM | SW-620 > 100 µM | OVCAR-3 > 100 µM | ACHN > 100 µM | U-251 > 100 µM | SK-MEL-5 > 100 µM | HCC 2998 > 100 µM | K562 > 100 µM | NCI-H226 > 100 µM | LOX IMVI > 100 µM | SF-268 > 100 µM | MDA-N > 100 µM | SK-MEL-28 > 100 µM | HOP-62 > 100 µM | KM12 > 100 µM | Malme-3M 20.8 µM | UACC-62 > 100 µM | MOLT-4 > 100 µM | OVCAR-4 > 100 µM

CCCN1CC=C(c2cc(C(=O)OCC)[nH]c2-c2cc(C)no2)C1=O
inactive: 786-0 > 100 µM | SW-620 > 100 µM | OVCAR-3 > 100 µM | U-251 > 100 µM | SK-MEL-5 > 100 µM | HCC 2998 > 100 µM | K562 > 100 µM | NCI-H226 73.5 µM | LOX IMVI > 100 µM | SF-268 > 100 µM | MDA-N > 100 µM | SK-MEL-28 > 100 µM | HOP-62 > 100 µM | KM12 > 100 µM | Malme-3M > 100 µM | UO-31 89.7 µM | UACC-62 > 100 µM | MOLT-4 53.6 µM | OVCAR-4 > 100 µM

O=C(NO)NCCCl
inactive: 786-0 > 100 µM | SW-620 > 100 µM | OVCAR-3 > 100 µM | ACHN > 100 µM | U-251 > 100 µM | SK-MEL-5 > 100 µM | HCC 2998 > 100 µM | K562 > 100 µM | NCI-H226 > 100 µM | LOX IMVI > 100 µM | SF-268 > 100 µM | MDA-N > 100 µM | HOP-62 > 100 µM | KM12 > 100 µM | Malme-3M > 100 µM | UO-31 > 100 µM | UACC-62 > 100 µM | MOLT-4 > 100 µM | OVCAR-4 > 100 µM

N=c1oc2ccc3ccccc3c2cc1-c1nc(O)c2ccccc2n1
inactive: 786-0 24.3 µM | SW-620 36.8 µM | ACHN 11.1 µM | U-251 19.2 µM | SK-MEL-5 44.5 µM | HCC 2998 29.6 µM | K562 19.7 µM | NCI-H226 37.1 µM | LOX IMVI 38.5 µM | SF-268 30.8 µM | MDA-N 46.2 µM | SK-MEL-28 95.7 µM | HOP-62 15.8 µM | KM12 11 µM | Malme-3M 23.4 µM | UO-31 3.23 µM | UACC-62 12.8 µM | MOLT-4 15.8 µM | OVCAR-4 20.6 µM

O=C(O)CC(C(=O)O)c1ccccc1[N+](=O)[O-] (configuration not stated)
inactive: 786-0 > 100 µM | SW-620 > 100 µM | OVCAR-3 > 100 µM | ACHN > 100 µM | U-251 > 100 µM | SK-MEL-5 > 100 µM | HCC 2998 > 100 µM | K562 > 100 µM | NCI-H226 > 100 µM | LOX IMVI > 100 µM | SF-268 > 100 µM | MDA-N > 100 µM | SK-MEL-28 > 100 µM | HOP-62 > 100 µM | KM12 > 100 µM | Malme-3M > 100 µM | UO-31 2.62 µM | UACC-62 > 100 µM | OVCAR-4 > 100 µM

c1ccc2c(c1)nc1n2C2CCC(C2)N1 (configuration not stated)
inactive: 786-0 > 10 µM | SW-620 > 10 µM | OVCAR-3 > 10 µM | U-251 > 10 µM | SK-MEL-5 > 10 µM | HCC 2998 > 10 µM | K562 > 10 µM | NCI-H226 > 10 µM | LOX IMVI > 10 µM | SF-268 > 10 µM | MDA-N > 10 µM | SK-MEL-28 > 10 µM | HOP-62 > 10 µM | Malme-3M > 10 µM | UO-31 > 10 µM | UACC-62 > 10 µM | MOLT-4 > 10 µM | OVCAR-4 > 10 µM
